US20230159469A1, “NOVEL PHTHALAZINE DERIVATIVE HAVING ECTONUCLOEOTIDE PYROPHOSPHATASE/PHOSPHODIESTE RASE INHIBITORY ACTIVITY, AND USE THEREOF” (TXINNO BIOSCIENCE INC., priority 2020, published 2023)
Where a name gives a salt, the structure may show the parent alone.

biological target: T1, human recombinant ENPP1 (Homo sapiens, UniProt P22413); test: ENPP1 enzyme assay with cGAMP substrate (AMP-Glo luminescence); assay type: biochemical; conditions: human recombinant ENPP1 3 ng/reaction, cGAMP 5 μM, 37° C. 90 minutes, read-out: Enzymatic activity (ENPP1 IC50)
T1 construct: purchased R & D systems
T1 sequence (P22413 1-925): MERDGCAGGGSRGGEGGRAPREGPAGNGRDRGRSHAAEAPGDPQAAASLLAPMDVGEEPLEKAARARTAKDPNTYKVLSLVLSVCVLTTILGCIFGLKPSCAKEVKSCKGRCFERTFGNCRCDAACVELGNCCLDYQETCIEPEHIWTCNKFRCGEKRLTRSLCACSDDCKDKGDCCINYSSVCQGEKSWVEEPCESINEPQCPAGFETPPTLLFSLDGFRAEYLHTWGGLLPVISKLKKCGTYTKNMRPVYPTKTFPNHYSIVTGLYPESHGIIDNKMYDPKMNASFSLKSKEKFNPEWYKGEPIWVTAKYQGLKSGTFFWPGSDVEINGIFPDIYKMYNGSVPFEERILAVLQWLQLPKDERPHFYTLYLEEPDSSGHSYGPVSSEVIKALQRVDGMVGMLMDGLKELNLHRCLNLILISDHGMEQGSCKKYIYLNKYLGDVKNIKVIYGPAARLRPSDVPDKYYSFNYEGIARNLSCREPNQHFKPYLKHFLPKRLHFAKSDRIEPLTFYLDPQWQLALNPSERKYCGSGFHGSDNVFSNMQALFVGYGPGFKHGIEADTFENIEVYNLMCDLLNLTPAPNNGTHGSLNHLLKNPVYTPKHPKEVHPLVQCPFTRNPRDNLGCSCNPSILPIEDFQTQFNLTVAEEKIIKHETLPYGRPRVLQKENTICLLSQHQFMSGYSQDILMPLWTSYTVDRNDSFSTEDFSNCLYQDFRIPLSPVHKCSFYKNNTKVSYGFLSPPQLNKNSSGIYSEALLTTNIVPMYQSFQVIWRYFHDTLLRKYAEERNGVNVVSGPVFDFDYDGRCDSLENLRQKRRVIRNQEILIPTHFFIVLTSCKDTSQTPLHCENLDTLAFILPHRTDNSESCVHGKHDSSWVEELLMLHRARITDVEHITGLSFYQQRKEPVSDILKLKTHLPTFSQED
Description: ENPP1 hydrolyzes nucleotides or nucleotide derivatives to produce nucleoside -5′-monophosphate and pyrophosphate. in addition, ENPP1 hydrolyzes 2′,3′-cGAMP to produce 5′-adenosine monophosphate (AMP) and 5′-guanosine monophosphate (GMP). AMP produced from the reaction is measured using the AMP-Glo® kit (Promega). The AMP-Glo® kit contains two reagents. The first reagent terminates the AMP-producing enzymatic reaction, removes ATP and converts the produced AMP into ADP. The second reagent converts ADP to ATP which is used to generate luminescence in the luciferase reaction. The amount of luminescence measured is proportional to the amount of AMP produced by ENPP1.
The final reaction mixture contains 50 mM Tris (pH 8.5) buffer, 250 mM NaCl, 0.5 mM. CaCl2, 1 μM ZnCl2, 5% glycerol and 1% DMSO. […] The reaction was initiated by addition of cGAMP (at a final concentration of 5 μM) and reacted at 37° C. for 90 minutes. At the end of the reaction, 10 μl of the AMP-Glo first reagent was added to stop the reaction and the result was stored at room temperature for […]. After storage, 20 μl of an AMP detection solution (a mixture of AMP-Glo II reagent and Kinase-Gio at a ratio of 1:100) was added and stored at room. temperature for 1 hour. Luminescence signals were measured using a Victor® plate reader (Perkin Elmer). The maximal activity control (containing enzymes and substrates only in the presence of 1% DMSO; MAX) and the minimal activity control (containing substrates and 1% DMSO; MIN) were evaluated simultaneously. In each experiment, serially diluted reference ENPP1 inhibitors were tested together. IC50, indicating % residual activity versus compound concentration was determined by fitting inhibition curves using the 3-parameter analysis of GraphPad Prism® software. Serially diluted samples of one compound were tested two or more times and an average IC50 of each compound was calculated.

Compound | IC50
NS(=O)(=O)NCc1cccc(-c2nn(Cc3ccccc3)c(=O)c3ccccc23)c1 [Compound No. 90, N-(3-(3-benzyl-4-oxo-3,4-dihydrophthalazin-1-yl)benzyl)sulfamide hydrochloride] | > 10000 nM
NS(=O)(=O)Nc1ccc(-c2nn(Cc3ccccc3)c(=O)c3ccccc23)cc1 [Compound No. 93, N-(4-(3-benzyl-4-oxo-3,4-dihydrophthalazin-1-yl)phenyl)sulfamide] | > 10000 nM
CCn1nc(-c2ccc(CNS(N)(=O)=O)cc2)c2ccccc2c1=O [Compound No. 98, N-(4-(3-ethyl-4-oxo-3,4-dihydrophthalazin-1-yl)benzyl)sulfamide hydrochloride] | 1000 to 10000 nM
CC(C)n1nc(-c2ccc(CNS(N)(=O)=O)cc2)c2ccccc2c1=O [Compound No. 99, N-(4-(3-isopropyl-4-oxo-3,4-dihydrophthalazin-1-yl)benzyl)sulfamide trifluoroacetic acid] | > 10000 nM
NS(=O)(=O)NCc1ccc(-c2nn(Cc3ccccc3)c(=O)c3ccccc23)cc1 [Compound No. 101, N-(4-(3-benzyl-4-oxo-3,4-dihydrophthalazin-1-yl)benzyl)sulfamide hydrochloride] | 1000 to 10000 nM
NS(=O)(=O)NCc1ccc(-c2nn(Cc3ccc(F)cc3)c(=O)c3ccccc23)cc1 [Compound No. 102, N-(4-(3-(4-fluorobenzyl)-4-oxo-3,4-dihydrophthalazin-1-yl)benzyl)sulfamide hydrochloride] | 1000 to 10000 nM
COc1ccc2c(=O)n(C)nc(-c3ccc(CNS(N)(=O)=O)cc3)c2c1 [Compound No. 105, N-(4-(7-methoxy-3-methyl-4-oxo-3,4-dihydrophthalazin-1-yl)benzyl)sulfamide hydrochloride] | 1000 to 10000 nM
COc1ccc2c(-c3ccc(CNS(N)(=O)=O)cc3)n[nH]c(=O)c2c1 [Compound No. 106, N-(4-(6-methoxy-4-oxo-3,4-dihydrophthalazin-1-yl)benzyl)sulfamide hydrochloride] | 1000 to 10000 nM
COc1ccc2c(-c3ccc(CNS(N)(=O)=O)cc3)nn(C)c(=O)c2c1 [Compound No. 107, N-(4-(6-methoxy-3-methyl-4-oxo-3,4-dihydrophthalazin-1-yl)benzyl)sulfamide hydrochloride] | > 10000 nM
COc1cc2c(-c3ccc(CNS(N)(=O)=O)cc3)nn(C)c(=O)c2cc1OC [Compound No. 108, N-(4-(6,7-dimethoxy-3-methyl-4-oxo-3,4-dihydrophthalazin-1-yl)benzyl)sulfamide hydrochloride] | 1000 to 10000 nM
COc1cc2c(-c3cccc(CNS(N)(=O)=O)c3)n[nH]c(=O)c2cc1OC [Compound No. 109, N-(3-(6,7-dimethoxy-4-oxo-3,4-dihydrophthalazin-1-yl)-benzyl) sulfamide] | 1000 to 10000 nM
COc1cc2c(-c3cccc(CNS(N)(=O)=O)c3)nn(C)c(=O)c2cc1OC [Compound No. 110, N-(3-(6,7-dimethoxy-3-methyl-4-oxo-3,4-dihydrophthalazin-1-yl)-benzyl) sulfamide] | 1000 to 10000 nM
COc1cc2c(-c3ccc(CNS(N)(=O)=O)cc3F)n[nH]c(=O)c2cc1OC [Compound No. 112, N-(4-(6,7-dimethoxy-4-oxo-3,4-dihydrophthalazin-1-yl)-3-fluorobenzyl)sulfamide hydrochloride] | 1000 to 10000 nM
COc1cc2c(-c3ccc(CN(C)S(N)(=O)=O)c(F)c3)n[nH]c(=O)c2cc1OC [Compound No. 113, N-(4-(6,7-dimethoxy-4-oxo-3,4-dihydrophthalazin-1-yl)-2-fluorobenzyl)-N-methyl sulfamide hydrochloride] | 1000 to 10000 nM
COc1cc2c(-c3ccc(CN(C)S(N)(=O)=O)cc3F)n[nH]c(=O)c2cc1OC [Compound No. 114, N-(4-(6,7-dimethoxy-4-oxo-3,4-dihydrophthalazin-1-yl)-3-fluorobenzyl)-N-methyl sulfamide hydrochloride] | 1000 to 10000 nM
COc1cc2c(-c3ccc(CNS(N)(=O)=O)c(F)c3F)n[nH]c(=O)c2cc1OC [Compound No. 115, N-(4-(6,7-dimethoxy-4-oxo-3,4-dihydrophthalazin-1-yl)-2,3-difluorobenzyl)sulfamide hydrochloride] | 1000 to 10000 nM
COc1cc2c(-c3ccc(CNS(N)(=O)=O)cc3C(F)(F)F)n[nH]c(=O)c2cc1OC [Compound No. 116, hydrochloride] | 1000 to 10000 nM
COc1cc2c(-c3ccc(CN(C)S(N)(=O)=O)c(F)c3F)n[nH]c(=O)c2cc1OC [Compound No. 117, N-(4-(6,7-dimethoxy-4-oxo-3,4-dihydrophthalazin-1-yl)-2,3-difluorobenzyl)-N-methyl sulfamide hydrochloride] | > 10000 nM
COc1cc2c(-c3ccc(CN(C)S(N)(=O)=O)cc3C(F)(F)F)n[nH]c(=O)c2cc1OC [Compound No. 118, hydrochloride] | > 10000 nM

The remaining lines, values ahead:

IC50 | Compound
< 1000 nM | NS(=O)(=O)Nc1cccc(-c2nn(Cc3ccccc3)c(=O)c3ccccc23)c1 [Compound No. 89, N-(3-(3-benzyl-4-oxo-3,4-dihydrophthalazin-1-yl)phenyl)sulfamide hydrochloride]
1000 to 10000 nM | NS(=O)(=O)Nc1ccc(-c2n[nH]c(=O)c3ccccc23)cc1 [Compound No. 91, N-(4-(4-oxo-3,4-dihydrophthalazin-1-yl)phenyl)sulfamide]
< 1000 nM | Cn1nc(-c2ccc(NS(N)(=O)=O)cc2)c2ccccc2c1=O [Compound No. 92, N-(4-(3-methyl-4-oxo-3,4-dihydrophthalazin-1-yl)phenyl)sulfamide]
< 1000 nM | Cn1nc(-c2cccc(CNS(N)(=O)=O)c2)c2ccccc2c1=O [Compound No. 94, N-(3-(3-methyl-4-oxo-3,4-dihydrophthalazin-1-yl)benzyl)sulfamide trifluoroacetic acid]
< 1000 nM | NS(=O)(=O)NCc1cccc(-c2n[nH]c(=O)c3ccccc23)c1 [Compound No. 95, N-(3-(3-oxo-3,4-dihydrophthalazin-1-yl)benzyl)sulfamide hydrochloride]
< 1000 nM | NS(=O)(=O)NCc1ccc(-c2n[nH]c(=O)c3ccccc23)cc1 [Compound No. 96, N-(4-(4-oxo-3,4-dihydrophthalazin-1-yl)benzyl)sulfamide hydrochloride]
< 1000 nM | Cn1nc(-c2ccc(CNS(N)(=O)=O)cc2)c2ccccc2c1=O [Compound No. 97, N-(4-(3-methyl-4-oxo-3,4-dihydrophthalazin-1-yl)benzyl)sulfamide hydrochloride]
< 1000 nM | NS(=O)(=O)NCc1ccc(-c2nn(-c3ccccc3)c(=O)c3ccccc23)cc1 [Compound No. 100, N-(4-(4-oxo-3-phenyl-3,4-dihydrophthalazin-1-yl)benzyl)sulfamide hydrochloride]
< 1000 nM | COc1ccc2c(=O)[nH]nc(-c3ccc(CNS(N)(=O)=O)cc3)c2c1 [Compound No. 103, N-(4-(7-methoxy-4-oxo-3,4-dihydrophthalazin-1-yl)benzyl)sulfamide hydrochloride]
< 1000 nM | COc1cc2c(-c3ccc(CNS(N)(=O)=O)cc3)n[nH]c(=O)c2cc1OC [Compound No. 104, N-(4-(6,7-dimethoxy-4-oxo-3,4-dihydrophthalazin-1-yl)benzyl)sulfamide hydrochloride]
< 1000 nM | COc1cc2c(-c3ccc(CNS(N)(=O)=O)c(F)c3)n[nH]c(=O)c2cc1OC [Compound No. 111, N-(4-(6,7-dimethoxy-4-oxo-3,4-dihydrophthalazin-1-yl)-2-fluorobenzyl)sulfamide hydrochloride]
